Measurements: patent US20250339425A1 (Northeastern University, priority 2024, published 2025)
Where two headings read alike, the source gives them in different places. One block for each compound: values may come before it.

How the values were obtained:
[1] = tested on: BzATP-induced release of IL-1β by human monocytic THP-1 cells; test: BzATP-induced release of IL-1β by LPS-primed monocytic THP-1 cells (ELISA); conditions: for inhibitory effect on IL-1β release at the lowest concentration tested: 1 nM; for inhibition of BzATP-induced release of IL-1β: LPS-primed THP-1 cells, ACh at 10 μM; for antagonism of the effect of ACh on IL-1β release: all concentrations investigated (1 nM to 100 μM), ACh 10 μM
[2] = molecular target: T1, α9 nAChR (Homo sapiens, UniProt Q9UGM1); conditions: for EC50: read-out: α9 EC50
T1 sequence (Q9UGM1 26-479 limits assumed): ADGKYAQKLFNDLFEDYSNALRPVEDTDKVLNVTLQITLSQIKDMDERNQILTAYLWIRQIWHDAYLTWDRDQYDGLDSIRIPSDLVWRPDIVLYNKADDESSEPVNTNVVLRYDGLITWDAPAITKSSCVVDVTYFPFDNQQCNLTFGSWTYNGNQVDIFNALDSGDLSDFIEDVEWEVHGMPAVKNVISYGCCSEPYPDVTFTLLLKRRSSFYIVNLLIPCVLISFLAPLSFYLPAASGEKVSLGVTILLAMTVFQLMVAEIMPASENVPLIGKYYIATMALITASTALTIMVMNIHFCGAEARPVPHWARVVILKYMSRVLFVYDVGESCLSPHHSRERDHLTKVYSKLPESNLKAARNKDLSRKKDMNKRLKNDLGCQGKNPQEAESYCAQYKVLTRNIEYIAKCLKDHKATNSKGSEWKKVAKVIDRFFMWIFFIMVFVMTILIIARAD

[3] = molecular target: human α7 nAChR (Homo sapiens, UniProt P36544)
human α7 nAChR, sequence (P36544 23-502): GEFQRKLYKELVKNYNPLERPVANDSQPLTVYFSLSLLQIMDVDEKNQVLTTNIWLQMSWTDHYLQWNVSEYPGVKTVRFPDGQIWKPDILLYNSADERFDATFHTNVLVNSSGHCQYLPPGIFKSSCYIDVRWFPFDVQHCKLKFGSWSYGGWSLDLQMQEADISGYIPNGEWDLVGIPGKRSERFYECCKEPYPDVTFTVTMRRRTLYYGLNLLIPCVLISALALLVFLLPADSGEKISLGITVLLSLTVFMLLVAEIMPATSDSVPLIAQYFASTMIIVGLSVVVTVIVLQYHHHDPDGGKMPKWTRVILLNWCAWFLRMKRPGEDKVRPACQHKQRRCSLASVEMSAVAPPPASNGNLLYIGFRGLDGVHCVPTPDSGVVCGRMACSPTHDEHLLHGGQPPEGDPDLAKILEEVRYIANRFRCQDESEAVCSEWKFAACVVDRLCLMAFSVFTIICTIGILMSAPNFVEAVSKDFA

[4] = molecular target: T2, α9α10 nAChR (Homo sapiens, UniProt Q9GZZ6+Q9UGM1); test: Inhibition of ACh-evoked currents, co-application with 60 μM ACh, oocytes expressing α9α10; assay type: cell-based; conditions: co-applied with 60 μM ACh; unit not printed for these values (α9 values in μM); read-out: IC50 as antagonist on α9α10
T2 construct: expressed in transfected cells; host or cells: Xenopus laevis oocytes injected with in vitro transcribed RNA
T2 sequence (Q9UGM1 26-479 limits assumed): as the sequence (Q9UGM1 26-479 limits assumed) above
T2 sequence (Q9GZZ6 25-450): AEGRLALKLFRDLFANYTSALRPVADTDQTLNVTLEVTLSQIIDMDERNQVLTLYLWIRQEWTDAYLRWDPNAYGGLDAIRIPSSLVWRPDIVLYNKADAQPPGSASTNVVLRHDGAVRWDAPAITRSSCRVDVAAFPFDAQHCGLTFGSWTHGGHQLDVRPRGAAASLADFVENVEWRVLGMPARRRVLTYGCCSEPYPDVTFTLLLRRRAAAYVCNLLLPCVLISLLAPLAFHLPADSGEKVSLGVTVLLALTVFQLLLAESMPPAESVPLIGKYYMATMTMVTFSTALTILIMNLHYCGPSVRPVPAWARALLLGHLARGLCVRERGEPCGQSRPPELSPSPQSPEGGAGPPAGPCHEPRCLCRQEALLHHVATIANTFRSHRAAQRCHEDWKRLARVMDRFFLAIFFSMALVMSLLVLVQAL
Description: (§1) FIGS. 13A-13B show inhibition concentration-response studies for chiral diMPP compounds (2R)PA-diMPP (8) and (2S)PA-diMPP (9), identified as α9 and α9α10 antagonists.
(§2) Experimental responses were measured relative to the preceding ACh control response. […] The transition from agonist to antagonist behavior in α7 to α9* nAChRs indicates a slightly bigger dialkyl tail on nitrogen, or perhaps more importantly, the asymmetry of the groups and potential for multiple rotamers is important for α9 agonism, while chirality is more important for α7 selectivity.
(§3) Two-electrode voltage-clamp experiments were conducted using OpusXpress 6000A (Molecular Devices, Union City CA, USA). Both the voltage and current electrodes were filled with 3 M KCl. Oocytes were voltage-clamped at −60 mV at room temperature. The oocytes were perfused with Ringer's solution (115 mM NaCl, 2.5 mM KCl, 1.8 mM CaCl2), 10 mM HEPES, 1 μM atropine, pH 7.2) at 2 ml/min. […] Drug applications were 12 s in duration followed by 181 s washout periods.

[5] = molecular target: T1, α9 nAChR; test: Inhibition of ACh-evoked currents, co-application with 60 μM ACh, oocytes expressing α9; assay type: cell-based; parameters: expressed in transfected cells; host or cells: Xenopus laevis oocytes injected with in vitro transcribed RNA; conditions: co-applied with 60 μM ACh; read-out: IC50 as antagonist on α9
Description: as §1, §2, §3

[6] = molecular target: T1, α9 nAChR; test: cell-based
[7] = tested on: CFA-induced inflammatory pain in mice; conditions: previously reported α9 nAChR agonist; cited from earlier work
[8] = in vitro; conditions: BALB/c, mouse, pooled mouse plasma
[9] = tested on: CFA-induced paw edema in mice; test: CFA-induced paw edema in mice; assay type: in vivo, mouse; conditions: CFA-treated mice; 10 mg/kg differing from vehicle
[10] = tested on: locomotor activity of mice; test: Locomotor activity of mice (photocell activity cages); assay type: in vivo, mouse; conditions: 10 mg/kg, compared to vehicle-treated animals
Description: Mechanical thresholds were elevated by treatments with II (FIGS. 5A-5D). […] Therefore, the data in FIGS. 5A-5D are the mean±SD scores for each condition. Statistical analysis was conducted using a Kruskal-Wallis test followed by Mann-Whitney rank sum test at each time point following II treatment.
Interruptions of the photocell beams (two banks of eight cells each) were then recorded for the next 60 min. Data are expressed as number of photocell interruptions.

[11] = In vitro metabolic stability in pooled human liver microsomes
[12] = In vitro metabolic stability in rat hepatocytes
[13] = Plasma protein binding
[14] = tested on: CFA-induced inflammatory pain in mice; conditions: mouse, in vivo
[15] = Table 4, chiral EMPPs and diMPPs
[16] = read-out: α7 EC50, Table 2, unit inferred
[17] = read-out: α7 EC50, Table 4, unit inferred
[18] = Table 1, peak current, relative to ACh maximum
[19] = Table 1, unit not given (0.23 as 230 nM)
[20] = Table 1, net charge, relative to ACh maximum
[21] = read-out: α7 EC50, Table 1, unit inferred

Structure (SMILES): CC[N+]1(C)CCN(c2ccc(C(=O)Nc3cccc(C)n3)cc2)C[C@H]1C (stereo partly drawn) [Compound IV-a, (2R)-1-ethyl-1,2-dimethyl-4-(4-((6-methylpyridin-2-yl)carbamoyl)phenyl)piperazin-1-ium iodide]
- inhibitory effect on IL-1β release at the lowest concentration tested [1]: moderate but significant inhibitory effects
- inhibition of BzATP-induced release of IL-1β [1]: significantly inhibited
- receptor selectivity α9 vs α7 [2]: selective towards α7
- α9 Imax ([2]; Table 2, chiral compounds): 0.0521 ± 0.013
- α9 Imax [2, 15]: 0.052 ± 0.013
- EC50 ([2]; Table 2, unit inferred): 1.93 ± 2.25 µM
- EC50 ([2]; Table 4, unit inferred): 1.93 ± 2.25 µM
- α7 Imax ([3]; Table 2, chiral compounds): 0.548 ± 0.02
- α7 Imax ([3]; Table 4): 0.55 ± 0.02
- EC50 [3, 16]: 7.16 ± 1.29 µM
- EC50 [3, 17]: 7.16 µM

Structure (SMILES): Cc1cccc(NC(=O)c2ccc(N3CC[N+](C)(C)[C@@H](C)C3)cc2)n1 [Compound IV-e]
- IC50 [4]: 4.33 ± 1.14 µM
- inhibition of BzATP-induced release of IL-1β [1]: significantly inhibited
- antagonism of the effect of ACh on IL-1β release [1]: significantly antagonized the effect of ACh
- IC50 [5]: 0.24 ± 0.11 µM
- receptor selectivity α9 vs α7 [2]: selective for α7
- type of activity at α9 / α9* nAChR [2]: antagonists of the alpha 9 nicotinic acetylcholine receptor
- α9 Imax ([2]; Table 2, chiral compounds): 0.04 ± 0.005
- α9 Imax [2, 15]: 0.04 ± 0.005
- type of activity at α9 / α9* nAChR ([2]; listed as (2S)PA-diMPP): lost nearly all agonist activity for α9* receptors
- EC50 ([2]; Table 2, unit inferred): 0.8 ± 0.6 µM
- EC50 ([2]; Table 4, unit inferred): 0.8 ± 0.6 µM
- α7 Imax ([3]; Table 2, chiral compounds): 0.397 ± 0.011
- α7 Imax ([3]; Table 4): 0.397 ± 0.01
- EC50 [3, 16]: 3.49 ± 0.35 µM
- EC50 [3, 17]: 3.49 ± 0.35 µM

Structure (SMILES): CC[N+]1(C)CCN(c2ccc(C#N)cc2)C[C@H]1C (stereo partly drawn) [(2R)r/s-pCN-EMPP]
- inhibitory effect on IL-1β release at the lowest concentration tested [1]: moderate but significant inhibitory effects
- inhibition of BzATP-induced release of IL-1β [1]: significantly inhibited

Structure (SMILES): CC[N+]1(C)CCN(c2ccc(NC(=O)c3ncc(C(F)(F)F)cc3Cl)cc2)CC1 [V-i]
- EC50 [6]: 0.81 ± 0.38 µM
- α9 Imax ([2]; Table 3, reverse amide GATs): 1.23 ± 0.13
- α7 Imax ([3]; Table 3): 0.001 ± 0.14

Structure (SMILES): CC[N+]1(C)CCN(c2ccc(NC(=O)c3ccc(C)cn3)cc2)CC1 [V-h]
- EC50 [6]: 0.44 ± 0.14 µM
- α9 Imax ([2]; Table 3, reverse amide GATs): 1.00 ± 0.08
- EC50 [3]: 315 µM
- α7 Imax ([3]; Table 3): 0.266 ± 0.33

Structure (SMILES): Cc1cccc(NC(=O)c2ccc(N3CC[N+](C)(C)[C@H](C)C3)cc2)n1 [IV-f]
- IC50 [4]: 0.406 ± 0.15 µM
- inhibition of BzATP-induced release of IL-1β [1]: significantly inhibited
- antagonism of the effect of ACh on IL-1β release [1]: significantly antagonized the effect of ACh
- IC50 [5]: 0.21 ± 0.06 µM
- receptor selectivity α9 vs α7 [2]: selective for α7
- type of activity at α9 / α9* nAChR [2]: antagonists of the alpha 9 nicotinic acetylcholine receptor
- α9 Imax ([2]; Table 2, chiral compounds): 0.0065 ± 0.72
- α9 Imax [2, 15]: 0.0065 ± 0.72
- type of activity at α9 / α9* nAChR ([2]; listed as (2R)PA-diMPP): lost nearly all agonist activity for α9* receptors
- α7 Imax ([3]; Table 2, chiral compounds): 0.426 ± 0.021
- α7 Imax ([3]; Table 4): 0.426 ± 0.02
- EC50 [3, 16]: 3.06 ± 0.38 µM
- EC50 [3, 17]: 3.06 ± 0.38 µM

Structure (SMILES): CC[N+]1(CC)CCN(c2ccc(C#N)cc2)CC1 [pCN-diEPP]
- effective duration against CFA-induced pain like behaviors [7]: 3 to 6 h

- half-life at 1 μM [8]: < 5 min
Structure (SMILES): CCN(CC)CCOC(=O)c1ccc(N)cc1 [procaine]

Structure (SMILES): CC[N+]1(C)CCN(c2ccc(C#N)cc2)CC1C [(2S)r/s-pCN-EMPP]
- inhibition of BzATP-induced release of IL-1β [1]: significantly inhibited
- EC50 [3]: 26.6 ± 9.6 µM

Structure (SMILES): CC[N+]1(C)CCN(c2ccc(NC(=O)c3cccc(Cl)n3)cc2)CC1 [V-b]
- EC50 [6]: 0.56 ± 0.065 µM
- α9 Imax ([2]; Table 3, reverse amide GATs): 1.00 ± 0.18
- EC50 [3]: 14 µM
- α7 Imax ([3]; Table 3): 0.10 ± 0.028

Structure (SMILES): CC[N+]1(C)CCN(c2ccc(NC(=O)c3ccc4ccccc4n3)cc2)CC1 [V-f]
- EC50 [6]: 0.157 µM
- α9 Imax ([2]; Table 3, reverse amide GATs): 1.008 ± 0.048
- EC50 [3]: 2.03 ± 0.54 µM
- α7 Imax ([3]; Table 3): 0.124 ± 0.009

Structure (SMILES): CC[N+]1(C)CCN(c2ccc(NC(C)=O)cc2)CC1 [Compound III, 4-(4-Acetamidophenyl)-1-ethyl-1-methylpiperazin-1-ium Iodide]
- EC50 [6]: 0.23 µM
- α9 Imax [2, 18]: 0.75 ± 0.04
- EC50 [2, 19]: 2.27 ± 0.49 µM
- increase in potency relative to ACh ([2]; α9): 113 fold

Structure (SMILES): CC[N+]1(C)CCN(c2ccc(NC(=O)c3cccc(F)n3)cc2)CC1 [V-c]
- EC50 [6]: 0.81 ± 0.38 µM
- α9 Imax ([2]; Table 3, reverse amide GATs): 1.2 ± 0.13
- α7 Imax ([3]; Table 3): 0.000 ± 0.000

Structure (SMILES): CC[N+]1(C)CCN(c2ccc(NC(=O)c3cccc(C)n3)cc2)CC1 [Compound II, 1-Ethyl-1-methyl-4-(4-(6-methylpicolinamido)phenyl)piperazin-1-ium iodide]
- paw edema [9]: significantly reduced paw edema
- locomotor activity [10]: did not significantly alter locomotor activity
- clearance [11]: low clearance
- clearance [12]: low clearance
- type of activity at α9 / α9* nAChR [2]: full agonist
- α9 Imax [2, 18]: 1.01 ± 0.03
- EC50 [2, 19]: 0.23 ± 0.034 µM
- α7 Imax [3, 20]: 0.41 ± 0.025
- EC50 [3, 21]: 78.3 ± 11.3 µM
- plasma protein binding [13]: 54%
- mechanical thresholds at the 72 h time point [14]: no significant effects

Structure (SMILES): CC[N+]1(C)CCN(c2ccc(C(=O)Nc3cccc(C)n3)cc2)CC1 [Compound 3f, reference compound]
- clearance [11]: low clearance
- clearance [12]: low clearance
- α9 Imax [2, 18]: 1.19 ± 0.03
- α9 Imax [2, 15]: 1.19 ± 0.03
- EC50 [2, 19]: 0.51 ± 0.07 µM
- EC50 ([2]; Table 4, unit inferred): 0.51 ± 0.07 µM
- α7 Imax [3, 20]: 0.40 ± 0.02
- α7 Imax ([3]; Table 4): 0.40 ± 0.02
- EC50 [3, 21]: 6.1 ± 1.1 µM
- EC50 [3, 17]: 6.1 ± 1.1 µM
- plasma protein binding [13]: 32%

Structure (SMILES): CC[N+]1(C)CCN(c2ccc(C(=O)Nc3cccc(C)n3)cc2)C[C@@H]1C (stereo partly drawn) [IV-b]
- inhibition of BzATP-induced release of IL-1β [1]: significantly inhibited
- receptor selectivity α9 vs α7 [2]: selective towards α9
- α9 Imax ([2]; Table 2, chiral compounds): 0.670 ± 0.02
- α9 Imax [2, 15]: 0.670 ± 0.02
- EC50 ([2]; Table 2, unit inferred): 2.09 ± 0.63 µM
- EC50 ([2]; Table 4, unit inferred): 2.09 ± 0.63 µM
- α7 Imax ([3]; Table 2, chiral compounds): 0.238 ± 0.004
- α7 Imax ([3]; Table 4): 0.24 ± 0.004
- EC50 [3, 16]: 7.1 ± 0.49 µM
- EC50 [3, 17]: 7.1 ± 0.49 µM

Structure (SMILES): CC[N+]1(CC)CCN(c2ccc(NC(=O)c3cccc(C)n3)cc2)CC1.[I-] [Compound I, 1,1-Diethyl-4-(4-(6-methylpicolinamido)phenyl)piperazin-1-ium iodide]
- α9 Imax [2, 18]: 1.24 ± 0.04
- α9 Imax ([2]; Table 3, reverse amide GATs): 1.01 ± 0.03
- EC50 [2, 19]: 1.63 ± 0.2 µM
- EC50 ([2]; Table 3, unit not printed (text gives 0.086 as 86 nM)): 0.23 ± 0.034 µM
- α7 Imax [3, 20]: 0.14 ± 0.004
- α7 Imax ([3]; Table 3): 0.41 ± 0.025
- EC50 [3, 21]: 4.68 ± 0.54 µM
- EC50 ([3]; read-out: α7 EC50, Table 3, unit inferred): 78.3 ± 11.3 µM

Structure (SMILES): CC[N+]1(C)CCN(c2ccc(NC(=O)c3cccc(Br)n3)cc2)CC1 [V-a]
- EC50 [6]: 0.44 ± 0.108 µM
- α9 Imax ([2]; Table 3, reverse amide GATs): 0.936 ± 0.04
- EC50 [3]: 7.1 ± 3.17 µM
- α7 Imax ([3]; Table 3): 0.094 ± 0.012
